Experimental data reported in ChEMBL document CHEMBL1140629, “2D QSAR studies on thyroid hormone receptor ligands” (Bioorg Med Chem, 2007).

Key:
[1] = molecular target: T1, Thyroid hormone receptor alpha (Homo sapiens, UniProt P10827)
T1 sequence (P10827 whole entry): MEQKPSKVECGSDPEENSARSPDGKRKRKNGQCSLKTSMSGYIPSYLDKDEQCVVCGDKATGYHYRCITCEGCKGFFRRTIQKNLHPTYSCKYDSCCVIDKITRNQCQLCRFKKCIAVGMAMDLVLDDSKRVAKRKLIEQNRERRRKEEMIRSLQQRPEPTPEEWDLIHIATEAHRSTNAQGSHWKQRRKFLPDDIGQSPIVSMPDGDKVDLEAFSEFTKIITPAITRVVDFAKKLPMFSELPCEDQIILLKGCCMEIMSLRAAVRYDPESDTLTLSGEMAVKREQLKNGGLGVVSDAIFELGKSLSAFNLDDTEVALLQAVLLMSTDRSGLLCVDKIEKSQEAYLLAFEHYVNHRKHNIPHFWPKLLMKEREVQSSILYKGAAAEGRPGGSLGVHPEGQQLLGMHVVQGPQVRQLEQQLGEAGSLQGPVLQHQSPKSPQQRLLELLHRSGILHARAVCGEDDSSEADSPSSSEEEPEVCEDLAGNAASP

[2] = molecular target: T2, Thyroid hormone receptor beta (Homo sapiens, UniProt P10828)
T2 sequence (P10828 whole entry): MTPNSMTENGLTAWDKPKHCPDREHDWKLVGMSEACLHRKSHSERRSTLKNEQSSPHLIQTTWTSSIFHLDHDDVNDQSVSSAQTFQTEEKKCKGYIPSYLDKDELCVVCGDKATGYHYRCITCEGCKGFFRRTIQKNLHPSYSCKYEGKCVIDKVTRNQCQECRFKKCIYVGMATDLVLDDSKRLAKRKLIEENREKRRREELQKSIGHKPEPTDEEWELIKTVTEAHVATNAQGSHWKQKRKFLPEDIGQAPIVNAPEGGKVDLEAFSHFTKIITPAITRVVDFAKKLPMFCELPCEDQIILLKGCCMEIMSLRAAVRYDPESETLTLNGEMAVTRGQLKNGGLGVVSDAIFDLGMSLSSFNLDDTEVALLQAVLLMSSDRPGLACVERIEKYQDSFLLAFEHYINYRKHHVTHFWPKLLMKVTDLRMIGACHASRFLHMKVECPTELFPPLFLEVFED

Structure (SMILES) | IC50 [1] [nM] | IC50 [2] [nM]
CCCCOc1c(Br)cc(CC(=O)O)cc1Br | 26300 | 
O=C(O)Cc1cc(Br)c(Oc2ccc(O)c(Oc3ccc(O)cc3)c2)c(Br)c1 | 240 | 
O=C(O)Cc1cc(Br)c(Oc2ccc(O)c(C(=O)Nc3ccccc3)c2)c(Br)c1 |  | 35.5
O=C(O)Cc1cc(Cl)c(Oc2ccc(O)c(-c3ccccc3)c2)c(Cl)c1 | 129 | 
O=C(O)Cc1cc(Cl)c(Oc2ccc(O)c(-c3cccc(O)c3)c2)c(Cl)c1 | 1170 | 
COc1cccc(CCNC(=O)c2cc(Oc3c(Br)cc(CC(=O)O)cc3Br)ccc2O)c1 |  | 4.9
O=C(O)Cc1cc(Br)c(Oc2ccc(O)c(C(=O)NCCc3ccccn3)c2)c(Br)c1 | 1150 | 
O=C(O)Cc1cc(Br)c(Oc2ccc(O)c(C(=O)NCc3ccccc3)c2)c(Br)c1 | 85.1 | 
CC(C)c1cc(Oc2c(Cl)cc3[nH]c(C(=O)O)cc(=O)c3c2Cl)ccc1O |  | 15.1
O=C(O)Cc1cc(Br)c(Oc2ccc(O)c(Cc3ccc(C(F)(F)F)cc3)c2)c(Br)c1 | 339 | 9.55
O=C(O)CCc1cc(Br)c(OC2CCCCC2)c(Br)c1 | 457 | 191
O=C(O)Cc1cc(Br)c(OC2CCCCC2)c(Br)c1 | 2690 | 776
O=C(O)Cc1cc(Cl)c(Oc2ccc(O)c(C(=O)NCc3ccccc3)c2)c(Cl)c1 | 126 | 3.47
CC(C)c1cc(Oc2c(Br)cc3c(c2Br)CC(C(=O)O)N3)ccc1O (stereo unspecified) | 38 | 8.51
O=C(O)Cc1cc(Cl)c(Oc2ccc(O)c(-c3cccc(C(F)(F)F)c3)c2)c(Cl)c1 |  | 0.851
O=C(O)Cc1cc(Cl)c(Oc2ccc(O)c(-c3ccccc3C(F)(F)F)c2)c(Cl)c1 |  | 3.24
